Test results taken from patent US20230136600A1, “Method and device for screening antigen epitope polypeptide” (priority 2020, published 2023).

Columns and labels:
Balb/c mice [1] = test: Detection of peptide immunogenicity by polypeptide chip: vaccine peptide-specific signal sequencing (timing-sequence response, Fisher exact test); type: in vivo; conditions: Embodiment IV; 7-peptide mixed solution with adjuvant: Mix 1 AddaVax, 2 Imject Alumn, 3 Alhydrogel, 4 Adju-Phos, 5 MA103A, 6 MA103B
Balb/c mice [2] = test: Polypeptide chip-based vaccine immunogenicity scoring system; type: in vivo; parameters: key to A2: whether the 95 percentile of the last sampling is increased compared with the end point: Y = rise; N = no rise; conditions: Embodiment III, polypeptide-KLH; for A1: difference between a highest median and a D 0 median (95 percentile) / A2: whether the 95 percentile of the last sampling is increased compared with the end point: Mix1-10; for Total single peptide: A*3 + B*2 + C*1; for A: 95 percentile grouping number score / B: Mouse performance score: total score = 5; for C1: #A timing-sequence response peptide fragment set / C2: #B vaccine specificity peptide fragment set / C3: Intersection of A and B / C4: Percentage of the intersection in set B / C: Timing-sequence response and specificity score: value of the whole mix

Substance: 4 (ALDPLSETKCT; SARS-CoV-2) [compound 4]
- #A timing-sequence response peptide fragment set (Balb/c mice [1]): 203
- #B vaccine specificity peptide fragment set (Balb/c mice [1]): 1244
- Intersection of A and B (Balb/c mice [1]): 0
- Mode I (Balb/c mice [1]): 23
- Mode II (Balb/c mice [1]): 183

Substance: 1 (YTNDKACPL; SARS-CoV-2) [compound 1]
- #A timing-sequence response peptide fragment set (Balb/c mice [1]): 237
- #B vaccine specificity peptide fragment set (Balb/c mice [1]): 1244
- Intersection of A and B (Balb/c mice [1]): 0
- Mode I (Balb/c mice [1]): 87
- Mode II (Balb/c mice [1]): 157

Substance: 3 (SVYAWNRKR; SARS-CoV-2) [compound 3]
- #A timing-sequence response peptide fragment set (Balb/c mice [1]): 123
- #B vaccine specificity peptide fragment set (Balb/c mice [1]): 1244
- Intersection of A and B (Balb/c mice [1]): 2
- Mode I (Balb/c mice [1]): 73
- Mode II (Balb/c mice [1]): 53

Substance: 5 (GRLQSLQTY; SARS-CoV-2) [compound 5]
- #A timing-sequence response peptide fragment set (Balb/c mice [1]): 260
- #B vaccine specificity peptide fragment set (Balb/c mice [1]): 1244
- Intersection of A and B (Balb/c mice [1]): 3
- Mode I (Balb/c mice [1]): 102
- Mode II (Balb/c mice [1]): 171

Substance: 2 (RGGSYTNDKAC; SARS-CoV-2) [compound 2]
- #A timing-sequence response peptide fragment set (Balb/c mice [1]): 100
- #B vaccine specificity peptide fragment set (Balb/c mice [1]): 1244
- Intersection of A and B (Balb/c mice [1]): 3
- Mode I (Balb/c mice [1]): 74
- Mode II (Balb/c mice [1]): 31

Substance: IRGGDGKMKD (SARS-CoV-2) [SEQ ID NO:40]
- B1: D 0-D 14 95 percentile rise in the number of mice (Balb/c mice [2]): 3
- B2: D 0-D 21 95 percentile rise in the number of mice (Balb/c mice [2]): 3
- B3: D 14-D 21 95 percentile rise in the number of mice (Balb/c mice [2]): 2
- B4: D 21-D 28 95 percentile rise in the number of mice (Balb/c mice [2]): 0
- A1: difference between a highest median and a D 0 median (95 percentile) (Balb/c mice [2]): 0.11
- A2: whether the 95 percentile of the last sampling is increased compared with the end point (Balb/c mice [2]): N
- Total single peptide (Balb/c mice [2]): 18.3
- A: 95 percentile grouping number score (Balb/c mice [2]): 4.5
- B: Mouse performance score (Balb/c mice [2]): 1.9
- C1: #A timing-sequence response peptide fragment set (Balb/c mice [2]): 823
- C2: #B vaccine specificity peptide fragment set (Balb/c mice [2]): 398
- C3: Intersection of A and B (Balb/c mice [2]): 7
- C4: Percentage of the intersection in set B (Balb/c mice [2]): 1.759
- C: Timing-sequence response and specificity score (Balb/c mice [2]): 1

Substance: KKPASRELKVTF [SEQ ID NO:24]
- B1: D 0-D 14 95 percentile rise in the number of mice (Balb/c mice [2]): 3
- B2: D 0-D 21 95 percentile rise in the number of mice (Balb/c mice [2]): 3
- B3: D 14-D 21 95 percentile rise in the number of mice (Balb/c mice [2]): 1
- B4: D 21-D 28 95 percentile rise in the number of mice (Balb/c mice [2]): 2
- A1: difference between a highest median and a D 0 median (95 percentile) (Balb/c mice [2]): 0.10
- A2: whether the 95 percentile of the last sampling is increased compared with the end point (Balb/c mice [2]): Y
- Total single peptide (Balb/c mice [2]): 18.2
- A: 95 percentile grouping number score (Balb/c mice [2]): 4.5
- B: Mouse performance score (Balb/c mice [2]): 2.1
- C1: #A timing-sequence response peptide fragment set (Balb/c mice [2]): 145
- C2: #B vaccine specificity peptide fragment set (Balb/c mice [2]): 529
- C3: Intersection of A and B (Balb/c mice [2]): 1
- C4: Percentage of the intersection in set B (Balb/c mice [2]): 0.189
- C: Timing-sequence response and specificity score (Balb/c mice [2]): 0.5

Substance: GRLQSLQTY (SARS-CoV-2) [SEQ ID NO:5]
- B1: D 0-D 14 95 percentile rise in the number of mice (Balb/c mice [2]): 3
- B2: D 0-D 21 95 percentile rise in the number of mice (Balb/c mice [2]): 2
- B3: D 14-D 21 95 percentile rise in the number of mice (Balb/c mice [2]): 0
- B4: D 21-D 28 95 percentile rise in the number of mice (Balb/c mice [2]): 2
- A1: difference between a highest median and a D 0 median (95 percentile) (Balb/c mice [2]): 0.11
- A2: whether the 95 percentile of the last sampling is increased compared with the end point (Balb/c mice [2]): Y
- Total single peptide (Balb/c mice [2]): 18.9
- A: 95 percentile grouping number score (Balb/c mice [2]): 5
- B: Mouse performance score (Balb/c mice [2]): 1.7
- C1: #A timing-sequence response peptide fragment set (Balb/c mice [2]): 133
- C2: #B vaccine specificity peptide fragment set (Balb/c mice [2]): 431
- C3: Intersection of A and B (Balb/c mice [2]): 1
- C4: Percentage of the intersection in set B (Balb/c mice [2]): 0.232
- C: Timing-sequence response and specificity score (Balb/c mice [2]): 0.5

Substance: EVFAQVKQIY (SARS-CoV-2) [SEQ ID NO:13]
- B1: D 0-D 14 95 percentile rise in the number of mice (Balb/c mice [2]): 3
- B2: D 0-D 21 95 percentile rise in the number of mice (Balb/c mice [2]): 3
- B3: D 14-D 21 95 percentile rise in the number of mice (Balb/c mice [2]): 0
- B4: D 21-D 28 95 percentile rise in the number of mice (Balb/c mice [2]): 2
- A1: difference between a highest median and a D 0 median (95 percentile) (Balb/c mice [2]): 0.08
- A2: whether the 95 percentile of the last sampling is increased compared with the end point (Balb/c mice [2]): Y
- Total single peptide (Balb/c mice [2]): 14.8
- A: 95 percentile grouping number score (Balb/c mice [2]): 3.5
- B: Mouse performance score (Balb/c mice [2]): 1.9
- C1: #A timing-sequence response peptide fragment set (Balb/c mice [2]): 1212
- C2: #B vaccine specificity peptide fragment set (Balb/c mice [2]): 389
- C3: Intersection of A and B (Balb/c mice [2]): 1
- C4: Percentage of the intersection in set B (Balb/c mice [2]): 0.257
- C: Timing-sequence response and specificity score (Balb/c mice [2]): 0.5
